{"source": "paper PMC7537397", "about": "“Deciphering and predicting CD4^+ T cell immunodominance of influenza virus hemagglutinin” (The Journal of Experimental Medicine, 2020)", "key": {"[1]": {"system": "H1-HA–reactive T cell clones from CD4^+ naive T cell compartment", "assay_type": "cell-based, human"}, "HLA-DR, HLA-DQ, HLA-DP": {"system": "HLA-DR, HLA-DQ, HLA-DP", "assay": "MHC-II restriction of T cell clones with blocking antibodies", "assay_type": "cell-based, human"}, "[2]": {"system": "H1-HA–specific memory CD4^+ T cell clones, donor HD1", "assay": "Functional avidity of memory T cell clones with anti-head or anti-stem EBV-B cell clones as APCs", "assay_type": "cell-based, human", "conditions": "HLA-DR–restricted clones specific for the peptide"}, "[3]": {"system": "H1-HA–reactive T cell clones from CD4^+ memory (Tcm, Tem, or cTfh) compartment, donor HD1", "assay_type": "cell-based, human"}, "HLA-DRB1*08:01": {"molecular_target": "HLA-DRB1*08:01 (Homo sapiens, UniProt P01903+P01911, A100R/A103L/A169T/D86S/F76Y/H45Y/I96F/K41T/L162R/M171V/P40S/Q125H/Q178H/Q39Y/Q99D/R218S/R42G/S66Y/V115G/W38E)", "assay_type": "binding", "conditions": "pH 7"}, "MHC-II molecules": {"system": "MHC-II molecules", "assay": "MS-based MHC-II peptidomics, H1-HA–pulsed anti-head and anti-stem EBV-B cell clones of donor HD1", "parameters": "species or system human", "conditions": "401–420: anti-stem clone; 416–430 and 386–400: both anti-head and anti-stem clones; union of n = 3"}, "[4]": {"system": "H1-HA–specific memory CD4^+ T cell clones, donor HD1", "assay_type": "cell-based, human", "conditions": "for functional avidity for peptide, memory T cell clone specific for the peptide: donor HD1 memory clones M1 (411–430), M2 (396–410), M3 (526–540), M4 (121–140), M5 (186–200), M6 (446–460), autologous monocytes; for functional avidity for peptide, memory T cell clone specific for the peptide / functional avidity for H1-HA protein, memory T cell clone specific for the peptide: from EC50, day 3; for functional avidity for H1-HA protein, memory T cell clone specific for the peptide: donor HD1 memory clones M1, M4, M5, M6; for fold lower functional avidity for H1-HA protein, memory T cell clone specific for the peptide: clones M2 (396–410) and M3 (526–540), had avidity for peptide comparable to clone M1"}, "[5]": {"system": "H1-HA–specific naive CD4^+ T cell clones, donor HD1", "assay_type": "cell-based, human", "conditions": "for fold lower avidity for protein, naive T cell clone specific for the peptide: clones N2 (521–540) and N3 (536–555); for functional avidity for peptide, naive T cell clone specific for the peptide: donor HD1 naive clones N1 (411–430), N2 (521–540), N3 (536–555), autologous monocytes, from EC50, day 3"}, "[6]": {"system": "naive and memory CD4^+ T cells", "assay": "T cell library screening and epitope mapping, naive and memory CD4^+ T cells", "assay_type": "cell-based, human", "conditions": "memory library"}}}
{"sequence": "AGAKSFYKNLIWLVKKGNSY", "values": [{"measurement": "N sister clones (epitope-specific naive clones per TCR Vβ clonotype)", "setting": "[1]", "value": 1}]}
{"sequence": "EDKHNGKLCKLRGVAPLHLG", "values": [{"measurement": "N sister clones (epitope-specific naive clones per TCR Vβ clonotype)", "setting": "[1]", "value": 1}]}
{"sequence": "EGRMNYYWTLVEPGDKITFE", "values": [{"measurement": "MHC-II restriction of T cell clones specific for the peptide", "setting": "HLA-DR, HLA-DQ, HLA-DP", "value": "HLA-DR restricted"}, {"measurement": "activation, proliferation and functional avidity with anti-stem compared with anti-head B cells as APCs", "setting": "[2]", "value": "much lower activation and proliferation"}, {"measurement": "reduction of functional avidity with anti-stem compared with anti-head B cells as APCs", "setting": "[2]", "value": 10, "unit": "fold"}]}
{"sequence": "EKMNTQFTAVGKEFNHLEKR", "values": [{"measurement": "number of different TCR Vβ clonotypes specific for the peptide", "setting": "[3]; 88 distinct clonotypes in total", "value": 16, "unit": "clonotypes"}, {"measurement": "number of sequenced T cell clones specific for the peptide", "setting": "[3]; 274 clones sequenced", "value": 62, "unit": "clones"}, {"measurement": "MHC-II restriction of T cell clones specific for the peptide", "setting": "HLA-DR, HLA-DQ, HLA-DP", "value": "HLA-DR restricted"}, {"measurement": "binding affinity to HLA-DRB1*08:01 relative to subdominant peptides", "setting": "HLA-DRB1*08:01", "value": "comparable to that of subdominant peptides"}, {"measurement": "activation, proliferation and functional avidity with anti-stem compared with anti-head B cells as APCs", "setting": "[2]", "value": "much lower activation and proliferation"}, {"measurement": "reduction of functional avidity with anti-stem compared with anti-head B cells as APCs", "setting": "[2]", "value": 10, "unit": "fold"}, {"measurement": "detection of H1-HA–derived peptides of the region by MHC-II immunopeptidomics, HD1 B cell clones", "setting": "MHC-II molecules", "value": "did not detect any"}]}
{"sequence": "GFLDIWTYNAELLVL", "values": [{"measurement": "N sister clones (epitope-specific naive clones per TCR Vβ clonotype)", "setting": "[1]", "value": 1}]}
{"sequence": "GFLDIWTYNAELLVLLENER", "values": [{"measurement": "N sister clones (epitope-specific naive clones per TCR Vβ clonotype)", "setting": "[1]", "value": 1}]}
{"sequence": "GKLCKLRGVAPLHLG", "values": [{"measurement": "N sister clones (epitope-specific naive clones per TCR Vβ clonotype)", "setting": "[1]", "value": 1}]}
{"sequence": "HLEKRIENLNKKVDD", "values": [{"measurement": "MHC-II restriction of T cell clones specific for the peptide", "setting": "HLA-DR, HLA-DQ, HLA-DP", "value": "HLA-DR–restricted"}, {"measurement": "activation, proliferation and functional avidity with anti-stem compared with anti-head B cells as APCs", "setting": "[2]", "value": "comparable functional avidity"}, {"measurement": "detection of H1-HA–derived peptides of the region by MHC-II immunopeptidomics, HD1 B cell clones", "setting": "MHC-II molecules", "value": "detected by MHC-II immunopeptidomics on both anti-head and anti-stem B cell clones"}]}
{"sequence": "KGKEVLVLWGIHHPS", "values": [{"measurement": "MHC-II restriction of T cell clones specific for the peptide", "setting": "HLA-DR, HLA-DQ, HLA-DP", "value": "HLA-DQ"}, {"measurement": "functional avidity for peptide, memory T cell clone specific for the peptide", "setting": "[4]", "value": "functional avidity lower than the median of the distribution"}, {"measurement": "functional avidity for H1-HA protein, memory T cell clone specific for the peptide", "setting": "[4]", "value": "functional avidity lower than the median of the distribution"}]}
{"sequence": "KLESTRIYQILAIYSTVASS", "values": [{"measurement": "fold lower avidity for protein, naive T cell clone specific for the peptide", "setting": "[5]", "value": 100, "unit": "fold"}, {"measurement": "functional avidity for peptide, naive T cell clone specific for the peptide", "setting": "[5]", "value": "high avidity"}]}
{"sequence": "LENERTLDYHDSNVK", "values": [{"measurement": "MHC-II restriction of T cell clones specific for the peptide", "setting": "HLA-DR, HLA-DQ, HLA-DP", "value": "HLA-DQ"}, {"measurement": "functional avidity for peptide, memory T cell clone specific for the peptide", "setting": "[4]", "value": "functional avidity lower than the median of the distribution"}, {"measurement": "functional avidity for H1-HA protein, memory T cell clone specific for the peptide", "setting": "[4]", "value": "functional avidity lower than the median of the distribution"}]}
{"sequence": "QNAIDEITNKVNSVI", "values": [{"measurement": "MHC-II restriction of T cell clones specific for the peptide", "setting": "HLA-DR, HLA-DQ, HLA-DP", "value": "HLA-DR–restricted"}, {"measurement": "activation, proliferation and functional avidity with anti-stem compared with anti-head B cells as APCs", "setting": "[2]", "value": "comparable functional avidity"}, {"measurement": "detection of H1-HA–derived peptides of the region by MHC-II immunopeptidomics, HD1 B cell clones", "setting": "MHC-II molecules", "value": "detected by MHC-II immunopeptidomics on both anti-head and anti-stem B cell clones"}]}
{"sequence": "RIYQILAIYSTVASS", "values": [{"measurement": "fold lower functional avidity for H1-HA protein, memory T cell clone specific for the peptide", "setting": "[4]", "value": "1,000 fold"}, {"measurement": "functional avidity for peptide, memory T cell clone specific for the peptide", "setting": "[4]", "value": "high functional avidity"}]}
{"sequence": "SRYSKKFKPEIAIRPKVRDQ", "values": [{"measurement": "N sister clones (epitope-specific naive clones per TCR Vβ clonotype)", "setting": "[1]", "value": 1}]}
{"sequence": "TVASSLVLVVSLGAISFWMC", "values": [{"measurement": "N sister clones (epitope-specific naive clones per TCR Vβ clonotype)", "setting": "[1]", "value": 1}, {"measurement": "fold lower avidity for protein, naive T cell clone specific for the peptide", "setting": "[5]", "value": 100, "unit": "fold"}, {"measurement": "functional avidity for peptide, naive T cell clone specific for the peptide", "setting": "[5]", "value": "high avidity"}]}
{"sequence": "VNSVIEKMNTQFTAV", "values": [{"measurement": "percentage of immunodominant T cell clones", "setting": "[6]; donor HD4", "value": 31.1, "unit": "%"}, {"measurement": "fold lower functional avidity for H1-HA protein, memory T cell clone specific for the peptide", "setting": "[4]", "value": "1,000 fold"}, {"measurement": "functional avidity for peptide, memory T cell clone specific for the peptide", "setting": "[4]", "value": "high functional avidity"}]}
{"sequence": "VVPRYAFAMERNAGSGIIIS", "values": [{"measurement": "percentage of immunodominant T cell clones", "setting": "[6]; donor HD3", "value": 24.5, "unit": "%"}]}
